Measurements reported in publication PMC5666312, “Profiling MHC II immunopeptidome of blood‐stage malaria reveals that cDC1 control the functionality of parasite‐specific CD4 T cells” (EMBO Molecular Medicine, 2017).
Where no end group is shown, it is not given here.

molecular target: T1, I‐A^b MHC II molecules (Mus musculus, UniProt P14434+P14483); test: I-A^b binding assay: inhibition of binding of a high-affinity radiolabeled peptide; details: competition with radiolabeled peptide ROIV (0.1–1 nM); purified I-A^b from LB27.4 B-cell lymphoma; room temperature, 2-day incubation; six concentrations; IC50 approximates Kd
T1 construct: endogenous in cells; host or cells: mouse B-cell lymphoma LB27.4
T1 sequence (P14434 24-256): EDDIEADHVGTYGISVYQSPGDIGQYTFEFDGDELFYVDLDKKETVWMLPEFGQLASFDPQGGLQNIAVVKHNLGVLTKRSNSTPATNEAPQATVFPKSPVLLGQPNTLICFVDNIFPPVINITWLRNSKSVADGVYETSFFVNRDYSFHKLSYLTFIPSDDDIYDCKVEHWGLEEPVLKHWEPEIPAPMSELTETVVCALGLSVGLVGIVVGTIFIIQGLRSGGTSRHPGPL
T1 sequence (P14483 28-265): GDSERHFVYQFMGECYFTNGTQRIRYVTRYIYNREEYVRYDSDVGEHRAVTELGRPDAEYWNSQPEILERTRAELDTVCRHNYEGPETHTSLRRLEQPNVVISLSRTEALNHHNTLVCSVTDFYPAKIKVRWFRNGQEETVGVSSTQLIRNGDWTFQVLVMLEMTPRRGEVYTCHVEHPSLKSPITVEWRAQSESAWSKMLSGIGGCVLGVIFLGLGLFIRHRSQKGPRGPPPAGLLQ
Experimental: We used mass spectrometry to globally characterize Pb antigenic peptides presented by MHC II on the surface of DC (Fig 1A). We immunoprecipitated the MHC II molecules from a splenic DC tumor cell line called MutuDC (Fuertes Marraco et al, 2012), incubated with Pb‐parasitized RBC (pRBC). Peptide‐loaded MHC II are trimers of I‐A^bα chain, I‐A^bβ chain, and antigenic peptide, which, depending on the affinity of the loaded peptide, can remain stable in SDS without prior boiling (Natarajan et al, 1999). To ensure that our protocol allowed the pull‐down of peptide‐MHC II trimers and not just of single I‐A^bβ chain, we compared the migration of eluates with and without prior boiling, confirming that the immunoprecipitated material was SDS‐stable (Fig 1B). Although genetically very close to PbA (Otto et al, 2014), several variants of Pb causing different pathophysiological outcomes have been described (de Souza et al, 2010). Pb K173 (PbK) being the most “distant” from PbA (although SNPs were found only in 469 of […]; Otto et al, 2014), we decided to perform this analysis both with PbA and PbK pRBC. This led to the identification of a total of 372 unique I‐A^b‐eluted peptides, comprising 330 mouse sequences and 42 Pb sequences (Fig 1C, Dataset EV1), derived from 13 putative Pb antigenic proteins (Dataset EV2). In line with the modest level of polymorphisms between PbA and PbK, none of those source antigens was polymorphic. Remarkably, for seven antigens, we recovered multiple peptides containing a core of 11–16 amino acids (aa) and various N‐ or C‐terminal extensions (Dataset EV2). This feature is a typical property of MHC II ligands (Bozzacco et al, 2011; Sofron et al, 2016). For each set of nested peptides, we further analyzed the longest spanning sequence comprising all recovered sequences, for example, NALYNYSIPRPNVTSNL for ETRAMP10.2 (PBANKA_0517000) or […] for LDH (PBANKA_1340100), resulting in a consolidated list of 14 peptides (Table 1). We evaluated the I‐A^b binding affinity of these 14 peptides by quantifying their ability to inhibit binding of a high‐affinity radiolabeled peptide (Sidney et al, 2013).
Purification of I‐A^b MHC II molecules by affinity chromatography and the assay based on the inhibition of binding of a high‐affinity radiolabeled peptide to quantitatively measure peptide binding were described elsewhere (Sidney et al, 2013). Briefly, the mouse B‐cell lymphoma LB27.4 was used as a source of MHC molecules. A high‐affinity radiolabeled peptide (0.1–1 nM; peptide ROIV, sequence YAHAAHAAHAAHAAHAA) was co‐incubated at room temperature with purified MHC in the presence of a cocktail of protease inhibitors and an inhibitor peptide. Following a 2‐day incubation, MHC‐bound radioactivity was determined by capturing MHC/peptide complexes on mAb (Y3JP)‐coated Lumitrac 600 plates (Greiner Bio‐one), and measuring bound cpm using the TopCount (Packard Instrument Co) microscintillation counter. The concentration of peptide yielding 50% inhibition of the binding of the radiolabeled peptide was calculated. Under the conditions utilized, where [label] < [MHC] and IC50 ≥ [MHC], the measured IC50 values are reasonable approximations of the true Kd values. Each competitor peptide was tested at six different concentrations covering a 100,000‐fold range. The “cold” probe was used as a positive control in each experiment.

Question: How did the IC50 turn out when APSEQTTTPEAATAASN [MSP1] was run?
Answer: The IC50 was 1350 nM.

Question: How did the IC50 turn out when DNEYDFSGKAALVYGQ [ATPSYN] was run?
Answer: The IC50 was 104 nM.

Question: For GGSTYIAAKVNEAKD [TIM14], which IC50 is on record?
Answer: The IC50 was 302 nM.

Question: For GINHEKYNSSQTIVSNAS [GAPDH.1], which IC50 is on record?
Answer: Its IC50 is 2420 nM.

Question: How did the IC50 turn out when INDRNFIATTALSSTEE [AMA1] was run?
Answer: The IC50 was 818 nM.

Question: How did the IC50 turn out when KILYNSAKPNSDLH [END70] was run?
Answer: The IC50 was 478 nM.

Question: Which IC50 does the source give for LHASPYVAPAAAIIEMAE [LDH] here?
Answer: The IC50 was 110 nM.

Question: LIPEYNEAAIMLSEKK [PDI] was tested. Which IC50 did it give?
Answer: The IC50 was 166 nM.

Question: Which IC50 does the source give for LMTTVHASTANQLVV [GAPDH.2] here?
Answer: The IC50 was 980 nM.

Question: With LSEVVIHPETNYALTG [M1] as the sequence, how does the IC50 read?
Answer: Its IC50 is 15900 nM.

Question: For NALYNYSIPRPNVTSNL [ETRAMP], which IC50 is on record?
Answer: Its IC50 is 87 nM.

Question: For SGKVVEENPKAIKSGDS [EF1a], which IC50 is on record?
Answer: Its IC50 is 2700 nM.

Question: TEVPSLVPPTTNTSHAAPAH [MAHRP] was tested. Which IC50 did it give?
Answer: The IC50 was 872 nM.

Question: With TTLGIFRAAVPSGASTG [ENO] as the sequence, how does the IC50 read?
Answer: The IC50 was 115 nM.
